Patent US20250129370A1, “METHOD FOR REDUCING HEPATIC TRIGLYCERIDES” (ADAERATA, LIMITED PARTNERSHIP, priority 2022, published 2025)

Tests used:
apoB = apoB degradation pathway in WT and PCSK7-/- IHH cells with pathway inhibitors; format: cell-based, human
Description: FIGS. 7A-l: PCSK7 can bind apoB in the ER and acts as a molecular chaperone-like facilitating its secretion, and its absence leads to a rapid degradation of apoB by the proteasome. […] (FIG. 7A) Western blot (presented on gel and graphically) of apoB100 and PC7 protein levels in WT and PCSK7^−/− IHH cells. Levels are normalized to α-tubulin. (FIG. 7B) Western blot (presented on gel and graphically) of apoB100 and PC7 protein levels over time (0, 15 and 30 minutes) in WT and PCSK7^−/− IHH cells incubated with cycloheximide (CHX) to block de novo mRNA translation. Levels are normalized to α-tubulin. (FIG. 7C-D) Western blot (presented on gel and graphically) of cellular apoB levels in WT and PCSK7^−/− IHH cells incubated with brefeldin A (BFA) that blocks exit from the endoplasmic reticulum (ER), an autophagy inhibitor 3-methyladenine (3MA), proteasome inhibitors MG132, Lactacystin, DMSO or non treated (NT) controls. (FIG. 7E) Western blot (presented on gel) of cellular apoB levels and polyubiquitinated apoB100 in WT and PCSK7^−/− IHH cells incubated with Lactacystin. (FIG. 7F) Schematic representation of apoB100 and apoB21 protein. […]

PCSK7 mRNA [1] = experiment: PCSK7 mRNA qPCR after miRNA overexpression in Huh7 cells; format: cell-based, human; details: Huh7, 48 hours following transfection, vs mock vector
Description: (§1) RNA was isolated from the cells with the TRIzol™ Reagent (Invitrogen, USA) according to the manufacturer's instructions. The RNA samples were treated with RNase-free DNase I (Fermentas, USA) to eliminate any possible DNA contamination. Reverse transcription was performed using the PrimeScript™ First Strand cDNA Synthesis Kit (Takara, Japan) following the manufacturer's protocol. Briefly, one unit of the DNase I enzyme, 1 μL of a buffer, and 1 μg of total RNA were incubated for 30 minutes at 37° C. Then, 1 μL of 50 mM EDTA was added for enzyme inactivation and incubated at 65° C. for 10 minutes. Subsequently, 5 μL of DNase-treated RNA was added to the mix of 0.5 μL of the reverse-transcriptase enzyme, 2 μL of the reverse-transcriptase buffer, and 1 μL of a random hexamer and incubated for 15 minutes at 37° C., followed by 5 seconds at 85° C. for enzyme inactivation. Stem-loop RT-qPCR method was applied for evaluating the expression of miRNAs (Kramer, 2011). […]
(§2) All the reactions were repeated in duplicates. Next, melt curves were analyzed, with the mean threshold cycles used for further analyses. The relative expressions of the miRNAs and PCSK7 to RNU48 small nuclear RNA and/or GAPDH and β2m were calculated, respectively, via the 2-ΔΔCt method. […]

PCSK7 mRNA [2] = experiment: PCSK7 mRNA qPCR after miRNA overexpression in HEK293T cells; format: cell-based, human
Description: as §1, §2

[3] = system: 3′-UTR of human PCSK7 mRNAs; experiment: Dual-luciferase reporter assay, wild-type PCSK7 3′-UTR, HEK293T cells; format: cell-based; details: wild-type PCSK7 3′-UTR psiCHECK-2, HEK293T
From the text: The interactions between the miRNAs and their probable targets on PCSK7 were explored by cloning the potential target regions in psiCHECK-2™ (Promega, USA), a luciferase reporter vector. In psiCHECK-2™, hRluc, the Renilla luciferase gene, is located upstream of the target regions of interest cloned into the psiCHECK-2™ vector downstream of the Renilla gene. The region corresponding to the 3′-UTR of PCSK7 (926-nt sequences in length) that constituted the predicted miRNA response elements was PCR-amplified and cloned downstream of the Renilla luciferase gene in the psiCHECK-2™ vector (Promega, USA). […]
The HEK293T cells were co-transfected through the application of the wild-type psiCHECK-2, the wild-type PCSK7 3′-UTR, the mutant PCSK7 3′-UTR, and the miR-overexpressing vectors so that the direct interactions of the nominated miRNAs with PCSK7 3′-UTR could be investigated. […] Transfection efficiency was monitored by fluorescent microscopy (Nikon TE2000S, Japan) 36 hours following the procedure.
The PsiCHECK-2 reporter construct plasmid contained the Renilla luciferase gene upstream of PCSK7 3′-UTR and an independent firefly luciferase gene as an internal control for normalization. […] Then, LARII Reagent was added, and after 20 minutes, the firefly luciferase activity was measured as a control. Afterward, Renilla activity was determined using Stop & Glo Reagent. […]

[4] = target: T1, endogenous apoB100 of IHH cells (human, UniProt P04114 28-4563); experiment: co-immunoprecipitation from IHH cell lysates with a human ApoB antibody, Western blot for the V5 tag (FIG. 7I)
T1 construct: Endogenous protein in lysates of human IHH cells; also called apolipoprotein B
T1 sequence (P04114 28-4563 limits assumed): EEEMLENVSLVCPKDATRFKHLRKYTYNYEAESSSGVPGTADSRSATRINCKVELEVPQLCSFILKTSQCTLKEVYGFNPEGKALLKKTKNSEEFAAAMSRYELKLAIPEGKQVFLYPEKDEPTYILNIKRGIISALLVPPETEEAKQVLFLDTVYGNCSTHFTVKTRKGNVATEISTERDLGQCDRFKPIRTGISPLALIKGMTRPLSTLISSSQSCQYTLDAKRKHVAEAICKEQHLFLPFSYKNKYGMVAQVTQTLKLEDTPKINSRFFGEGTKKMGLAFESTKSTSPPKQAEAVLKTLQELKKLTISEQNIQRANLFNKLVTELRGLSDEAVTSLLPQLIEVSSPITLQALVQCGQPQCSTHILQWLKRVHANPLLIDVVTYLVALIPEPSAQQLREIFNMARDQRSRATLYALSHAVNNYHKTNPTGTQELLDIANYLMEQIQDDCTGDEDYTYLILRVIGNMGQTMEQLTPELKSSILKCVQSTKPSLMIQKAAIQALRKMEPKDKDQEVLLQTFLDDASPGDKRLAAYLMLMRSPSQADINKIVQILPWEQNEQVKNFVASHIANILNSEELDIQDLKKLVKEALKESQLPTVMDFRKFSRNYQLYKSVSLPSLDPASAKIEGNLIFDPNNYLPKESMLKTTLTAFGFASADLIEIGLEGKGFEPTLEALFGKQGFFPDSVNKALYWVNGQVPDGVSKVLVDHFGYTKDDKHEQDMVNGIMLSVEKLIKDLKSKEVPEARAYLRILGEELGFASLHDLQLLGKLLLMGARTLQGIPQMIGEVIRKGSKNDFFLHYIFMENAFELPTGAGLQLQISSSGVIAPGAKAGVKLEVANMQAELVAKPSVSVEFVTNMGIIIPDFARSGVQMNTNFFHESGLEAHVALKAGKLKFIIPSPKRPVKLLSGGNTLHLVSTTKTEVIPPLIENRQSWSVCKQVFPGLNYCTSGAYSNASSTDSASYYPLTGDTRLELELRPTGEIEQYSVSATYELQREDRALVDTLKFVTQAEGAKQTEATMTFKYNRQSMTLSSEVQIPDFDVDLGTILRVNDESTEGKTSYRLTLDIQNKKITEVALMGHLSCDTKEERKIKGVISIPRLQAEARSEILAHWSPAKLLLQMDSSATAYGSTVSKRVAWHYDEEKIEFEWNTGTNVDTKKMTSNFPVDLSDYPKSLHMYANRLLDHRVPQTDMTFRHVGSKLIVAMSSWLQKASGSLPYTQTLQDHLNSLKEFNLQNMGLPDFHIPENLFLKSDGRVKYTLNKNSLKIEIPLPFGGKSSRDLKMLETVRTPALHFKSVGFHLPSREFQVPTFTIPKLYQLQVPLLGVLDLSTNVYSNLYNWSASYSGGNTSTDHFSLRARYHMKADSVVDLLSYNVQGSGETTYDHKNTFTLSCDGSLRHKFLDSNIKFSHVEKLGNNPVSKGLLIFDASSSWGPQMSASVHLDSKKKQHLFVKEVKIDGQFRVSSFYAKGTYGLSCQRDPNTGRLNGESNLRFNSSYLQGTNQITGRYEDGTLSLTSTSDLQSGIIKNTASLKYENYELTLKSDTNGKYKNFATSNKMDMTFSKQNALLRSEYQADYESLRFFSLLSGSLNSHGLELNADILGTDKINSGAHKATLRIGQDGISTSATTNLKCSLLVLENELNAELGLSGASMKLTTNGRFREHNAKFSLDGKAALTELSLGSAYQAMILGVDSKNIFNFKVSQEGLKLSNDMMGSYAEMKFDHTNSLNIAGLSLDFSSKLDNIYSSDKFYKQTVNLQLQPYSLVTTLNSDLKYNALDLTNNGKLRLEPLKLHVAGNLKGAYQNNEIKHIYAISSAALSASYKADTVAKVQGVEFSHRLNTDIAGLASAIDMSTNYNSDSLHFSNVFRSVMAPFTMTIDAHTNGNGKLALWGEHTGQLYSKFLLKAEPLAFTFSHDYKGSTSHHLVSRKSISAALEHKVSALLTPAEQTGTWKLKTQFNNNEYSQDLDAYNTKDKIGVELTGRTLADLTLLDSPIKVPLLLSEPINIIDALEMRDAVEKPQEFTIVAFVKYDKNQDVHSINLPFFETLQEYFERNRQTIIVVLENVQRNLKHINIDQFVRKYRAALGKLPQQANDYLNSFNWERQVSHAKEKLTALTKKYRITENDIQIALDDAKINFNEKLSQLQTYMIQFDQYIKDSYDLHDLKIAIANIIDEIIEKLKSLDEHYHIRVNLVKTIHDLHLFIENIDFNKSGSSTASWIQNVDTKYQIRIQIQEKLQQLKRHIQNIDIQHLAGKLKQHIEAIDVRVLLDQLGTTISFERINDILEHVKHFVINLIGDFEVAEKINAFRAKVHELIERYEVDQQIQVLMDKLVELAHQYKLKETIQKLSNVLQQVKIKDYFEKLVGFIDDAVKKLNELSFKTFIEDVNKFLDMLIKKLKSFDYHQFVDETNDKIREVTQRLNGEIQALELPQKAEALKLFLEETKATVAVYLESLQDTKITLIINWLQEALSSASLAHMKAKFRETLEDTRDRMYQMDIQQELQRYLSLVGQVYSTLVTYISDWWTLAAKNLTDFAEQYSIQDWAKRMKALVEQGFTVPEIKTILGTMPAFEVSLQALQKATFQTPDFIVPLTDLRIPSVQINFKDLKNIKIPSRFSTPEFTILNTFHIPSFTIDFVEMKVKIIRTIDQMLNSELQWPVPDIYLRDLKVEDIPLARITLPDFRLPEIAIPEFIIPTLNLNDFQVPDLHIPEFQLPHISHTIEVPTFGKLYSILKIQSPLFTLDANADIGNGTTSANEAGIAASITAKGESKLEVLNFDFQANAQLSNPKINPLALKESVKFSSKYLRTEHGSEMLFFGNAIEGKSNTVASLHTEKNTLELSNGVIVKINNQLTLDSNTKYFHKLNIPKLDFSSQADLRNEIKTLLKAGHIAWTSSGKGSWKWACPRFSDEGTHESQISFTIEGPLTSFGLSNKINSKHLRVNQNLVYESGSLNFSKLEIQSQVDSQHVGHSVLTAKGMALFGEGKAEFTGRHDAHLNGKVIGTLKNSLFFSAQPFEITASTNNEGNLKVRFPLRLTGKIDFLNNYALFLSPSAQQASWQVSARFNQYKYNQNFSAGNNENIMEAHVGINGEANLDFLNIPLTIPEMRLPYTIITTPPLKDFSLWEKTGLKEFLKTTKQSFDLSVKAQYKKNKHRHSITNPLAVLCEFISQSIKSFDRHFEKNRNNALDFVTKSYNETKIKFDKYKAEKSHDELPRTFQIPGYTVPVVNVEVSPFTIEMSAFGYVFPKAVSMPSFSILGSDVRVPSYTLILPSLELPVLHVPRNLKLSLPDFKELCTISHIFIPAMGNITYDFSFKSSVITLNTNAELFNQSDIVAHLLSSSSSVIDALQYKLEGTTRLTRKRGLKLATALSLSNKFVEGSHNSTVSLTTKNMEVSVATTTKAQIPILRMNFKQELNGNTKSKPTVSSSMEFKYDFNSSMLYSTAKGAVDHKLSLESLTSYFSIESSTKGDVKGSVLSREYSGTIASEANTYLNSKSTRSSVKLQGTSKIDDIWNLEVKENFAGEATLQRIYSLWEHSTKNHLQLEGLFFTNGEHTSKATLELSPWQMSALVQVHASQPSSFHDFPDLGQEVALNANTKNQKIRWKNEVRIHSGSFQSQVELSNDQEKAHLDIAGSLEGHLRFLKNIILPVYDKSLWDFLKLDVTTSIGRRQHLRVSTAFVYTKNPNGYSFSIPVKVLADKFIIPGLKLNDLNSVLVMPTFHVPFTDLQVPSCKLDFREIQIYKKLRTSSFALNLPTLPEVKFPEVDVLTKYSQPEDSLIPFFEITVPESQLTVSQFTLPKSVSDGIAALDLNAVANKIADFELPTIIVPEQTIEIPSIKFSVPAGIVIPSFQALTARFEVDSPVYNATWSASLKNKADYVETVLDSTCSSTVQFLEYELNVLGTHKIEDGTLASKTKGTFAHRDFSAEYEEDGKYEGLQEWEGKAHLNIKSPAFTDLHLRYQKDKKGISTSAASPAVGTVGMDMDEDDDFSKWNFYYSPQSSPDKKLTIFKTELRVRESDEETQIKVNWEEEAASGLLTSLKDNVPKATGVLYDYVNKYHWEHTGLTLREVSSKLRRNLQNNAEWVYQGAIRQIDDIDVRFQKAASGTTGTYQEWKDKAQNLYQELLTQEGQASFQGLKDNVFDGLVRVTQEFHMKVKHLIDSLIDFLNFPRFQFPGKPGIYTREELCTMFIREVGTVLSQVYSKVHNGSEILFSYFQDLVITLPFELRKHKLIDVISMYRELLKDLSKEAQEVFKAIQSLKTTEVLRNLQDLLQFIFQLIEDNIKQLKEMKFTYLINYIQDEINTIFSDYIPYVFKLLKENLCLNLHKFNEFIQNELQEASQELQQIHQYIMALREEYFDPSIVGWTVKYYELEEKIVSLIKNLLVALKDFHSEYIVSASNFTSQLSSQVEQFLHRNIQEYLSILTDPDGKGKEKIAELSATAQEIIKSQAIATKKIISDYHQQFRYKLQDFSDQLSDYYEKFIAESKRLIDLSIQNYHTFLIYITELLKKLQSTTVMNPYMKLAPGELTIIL

## C[C@H]1CCC/C=C/[C@@H]2C[C@H](O)C[C@H]2[C@H](O)/C=C/C(=O)O1 [BFA, brefeldin A]
apoB
  inhibition of apoB degradation: absence of BFA inhibition

## miR-320a-3p: predicted PCSK7-targeting miRNA with one predicted target site, overexpressed from precursor vector (AAAAGCUGGGUUGAGAGGGCGA; miRNA expressed from a precursor vector, further chemistry not given here)
PCSK7 mRNA [1]
  effect on expression of PCSK7 mRNA: did not downregulate
PCSK7 mRNA [2]
  effect on PCSK7 mRNA levels: no significant regulatory relationship
[3]
  effect on luciferase activity: no significant effect

B1: SKI-1 tagged with V5 (enzyme, UniProt Q14703 187-1052, looked up)
chain: RAIPRQVAQTLQADVLWQMGYTGANVRVAVFDTGLSEKHPHFKNVKERTNWTNERTLDDGLGHGTFVAGVIASMRECQGFAPDAELHIFRVFTNNQVSYTSWFLDAFNYAILKKIDVLNLSIGGPDFMDHPFVDKVWELTANNVIMVSAIGNDGPLYGTLNNPADQMDVIGVGGIDFEDNIARFSSRGMTTWELPGGYGRMKPDIVTYGAGVRGSGVKGGCRALSGTSVASPVVAGAVTLLVSTVQKRELVNPASMKQALIASARRLPGVNMFEQGHGKLDLLRAYQILNSYKPQASLSPSYIDLTECPYMWPYCSQPIYYGGMPTVVNVTILNGMGVTGRIVDKPDWQPYLPQNGDNIEVAFSYSSVLWPWSGYLAISISVTKKAASWEGIAQGHVMITVASPAETESKNGAEQTSTVKLPIKVKIIPTPPRSKRVLWDQYHNLRYPPGYFPRDNLRMKNDPLDWNGDHIHTNFRDMYQHLRSMGYFVEVLGAPFTCFDASQYGTLLMVDSEEEYFPEEIAKLRRDVDNGLSLVIFSDWYNTSVMRKVKFYDENTRQWWMPDTGGANIPALNELLSVWNMGFSDGLYEGEFTLANHDMYYASGCSIAKFPEDGVVITQTFKDQGLEVLKQETAVVENVPILGLYQIPAEGGGRIVLYGDSNCLDDSHRQKDCFWLLDALLQYTSYGVTPPSLSHSGNRQRPPSGAGSVTPERMEGNHLHRYSKVLEAHLGDPKPRPLPACPRLSWAKPQPLNETAPSNLWKHQKLLSIDLDKVVLPNFRSNRPQVRPLSPGESGAWDIPGGIMPGRYNQEVGQTIPVFAFLGAMVVLAFFVVQINKAKSRPKRRKPRVKRPQLMQQVHPPKTPSV
notes: also called SKI-1-V5; not shown: V5 tag
[4]
  binding result: no binding
